Here are results for 9 compounds from ChEMBL document CHEMBL1137194, “Possible differences in modes of agonist and antagonist binding at human 5-HT6 receptors” (Bioorg Med Chem Lett, 2004).

This assay has as its target 5-hydroxytryptamine receptor 6 (Homo sapiens, UniProt P50406). The assay is described as follows: Binding affinity against 5-hydroxytryptamine 6 receptor.

Usually Ki stands for the dissociation constant of the complex between target and ligand, obtained from inhibition or displacement. Low readings indicate higher affinity, high ones lower affinity.

5-hydroxytryptamine receptor 6, sequence (P50406 whole entry): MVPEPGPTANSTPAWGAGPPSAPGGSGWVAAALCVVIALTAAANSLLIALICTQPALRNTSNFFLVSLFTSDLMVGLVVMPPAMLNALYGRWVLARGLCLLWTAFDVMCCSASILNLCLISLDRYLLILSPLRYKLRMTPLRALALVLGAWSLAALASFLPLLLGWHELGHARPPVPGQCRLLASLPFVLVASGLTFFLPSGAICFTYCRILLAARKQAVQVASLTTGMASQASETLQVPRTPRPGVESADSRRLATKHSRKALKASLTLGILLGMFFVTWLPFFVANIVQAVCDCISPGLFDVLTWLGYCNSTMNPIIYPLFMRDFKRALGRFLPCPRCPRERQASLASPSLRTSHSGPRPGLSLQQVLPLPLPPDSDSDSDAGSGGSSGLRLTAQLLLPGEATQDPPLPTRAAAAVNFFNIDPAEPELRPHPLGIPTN

`CN(C)CCc1cn(Cc2ccccc2)c2ccccc12` registered a Ki of 6 nM. For `CCN(CC)CCc1cn(S(=O)(=O)c2ccccc2)c2ccc(OC)cc12` the value was 6 nM; for `CN(C)CC[N+]1=CCc2ccccc21`, 1900 nM. For `CCCc1c(CCN(C)C)c2cc(OC)ccc2n1S(=O)(=O)c1ccccc1` the value was 2.3 nM. For `CN(C)CCn1ccc2ccccc21` the value was over 5000 nM; for `CN(C)CCN1CCc2ccccc21`, over 5000 nM; for `CN(C)CCC1=CC(Cc2ccccc2)c2ccccc21` (centres undefined), 3 nM. As to `COc1ccc2c(c1)c(CCN(C)C)cn2S(=O)(=O)c1ccccc1`, the Ki amounted to 2 nM. For `COc1ccc2c(c1)c(CCN(C)C)cn2S(=O)(=O)c1ccc(N)cc1` the value was 0.6 nM.
